Results: patent EP0366632A1, “Alternative energy substrates” (priority 1988, dated 1990)
“And” between values parts separate entries of the source, which are not always exact repeats. Equal entries are not always repeated.

How the values were obtained:
[1] = Cold storage of fat emulsion (Intralipid) with ester admixture: visual inspection, pH, mean particle size; assay type: physicochemical; conditions: for Mean particle size, X / pH / Mean particle size (single readings, Coulter nanosizer): Example 32: Intralipid 20%; for pH: after 5 day storage; for Mean particle size (single readings, Coulter nanosizer): listed as 5-methyl-3-oxo-pentanoic acid ethyl ester; for emulsion quality, daily visual inspection: Example 32: mother concentrate in Intralipid 20%; for emulsion quality, daily visual inspection / emulsion stability, daily visual inspection: +5°C, 5 days
Method: A so-called mother concentrate was prepared by dissolving 6 g of egg-yolk phospholipids in 40 g of 4-methyl-3-oxo-pentanoic acid ethyl ester at +60°C, while stirring. 34 g of 99% ethyl alcohol were then added to the solution, whereafter the solution was cooled to room temperature and dispensed into 20 ml glass flasks. Nitrogen gas was then bubbled through the liquid and the flasks then stoppered and capsuled. The bottles were then autoclaved at +120°C and at 118 kPa for 20 minutes. A 10% fat emulsion for parenteral nutrient administration (Intralipid^R retailed by KabiVitrum AB, Stockholm) was added to the preparation under strict asceptic conditions, to a 4-methyl-3-oxo-pentanoic acid ethyl ester concentration of 0.2, 1 and 3% respectively. The emulsion was shaken for 5 minutes in a shaking machine and then placed in a cold environment (+5°C). The emulsion was thereafter observed over a 5 day period, wherewith a daily inspection was carried out to assess the formation of oil droplets, creaming or oil separation. The assessment was made in comparison with a known emulsion for parenteral use (Intralipid^R 10%). […] Subsequent to 5 days storage, an analysis was made of the pH and mean particle size in a Coulter nanosizer. The following values were obtained:
(§1) A so-called mother concentrate produced by dissolving 6 g egg-yolk phospholipids in 40 g of 4-methyl-3-oxo-pentanoic acid-ethyl ester at +60°C, while stirring the system. 34 g of 99% ethyl alcohol were then added to the solution, whereafter the solution was cooled to room temperature and dispensed into 20 ml glass flasks. Nitrogen gas was perculated through the contents of the flasks, and the flasks subsequently stoppered and fitted with capsules. The flasks were then autoclaved at 120°C and 118 kPa over a period of 20 minutes. This preparation was added to a 20% fat emulsion (Intralipid^R) under strict aseptic conditions, such that the concentation of 4-methyl-3-oxo-pentanoic acid ethyl ester was 0.2 and 1 and 3% respectively. The emulsion was shaken for 5 minutes in a shaker and then placed in a cold environment (5°C). The emulsion was inspected over a period of 5 calender days, wherewith a visual inspection was carried out daily in order to ascertain the occurrence of any oil droplets that may form, creaming or oil separation. The assay was effected by comparison with a known emulsion for parenteral use (Intralipid^R 20%). […] The pH of the emulsion was measured after a 5 day storage period. The mean particle size was measured in a Coulter^R nanosizer. The following values were obtained:
as §1, with “prepara tion” for “preparation”, “10%” for “20%”, “10%).” for “20%).”, “obtained: […]” for “obtained:”

[2] = as above; assay type: physicochemical; conditions: Example 33: pure ester in 20 percent emulsion, 5%, +5°C, 5 days
[3] = test system: Escherichia coli ATCC 8739; experiment: Microorganism count in ester emulsions diluted with phosphate buffer, albumin solution or TSB (Example 16); assay type: cell-based
Method: The emulsions contained egg-yolk phospholipid 1,2% and sterile water in addition to ester. The emulsions were prepared aseptically, by emulsifying sterile-filtered ester with a sterilized dispersion of egg-yolk phospholipids.
Aliquots of these emulsions were diluted at a ratio of 1 to 10 with phosphate buffer (0.01 M, pH=7.0), seruma albumin solution 20% and Tryptone soya broth (TSB) respectively. Escherichia coli ATCC 8739 were added to the emulsions. The emulsions were then incubated for 20 hours at +37°C. The microorganism count was carried out after 1-5 minutes, 2 hours and 20 hours, in the manner described in microbiological literature. Parallel with the above tests, there was made a control of phosphate buffer and TSB with additions of Escherichia coli ATCC 8739. The latter substrate was tested to ascertain whether or not the microorganisms were viable. […] The starting concentration was about 10⁴. In the samples containing 4-methyl-3-oxo-pentanoic acid ethyl ester, the combination with phosphate buffer was 0 after 5 minutes, 0 after 2 hours and 0 after 20 hours. In the combination with 20% albumin solution, the microorganism count was 0 after 5 minutes, no count was taken after 2 hours, and 0 after 20 hours. […], the count in the combination with TSB was 0, no count was taken after 2 hours, and 0 after 20 hours.
In the samples containing 5-methyl-3-oxo-hexanoic acid ethyl ester, the count in the combination with phosphate buffer was 10 after 5 minutes, 0 after 2 hours, and 0 after 20 hours. The combination with 20% albumin solution was 10² after 5 minutes, no count was taken after 2 hours, and 0 after 20 hours. In the combination with TSB, the count was 10 after 5 minutes, no count was taken after 2 hours, and 0 after 20 hours. […] All microorganisms were eliminated within 20 hours by both esters at the same low concentration.

CCOC(=O)CC(=O)CC(C)C [5-methyl-3-oxo-hexanoic acid ethyl ester]
Mean particle size, X ([1]; 0.2% admix): 322
pH ([1]; 0.2% admix): 7.4
Mean particle size (single readings, Coulter nanosizer) ([1]; 0.2% admix): 317 and 321 and 324
Mean particle size, X ([1]; 1% admix): 319
pH ([1]; 1% admix): 7.0
Mean particle size (single readings, Coulter nanosizer) ([1]; 1% admix): 317 and 324 and 321
Mean particle size, X ([1]; 3% admix): 324
pH ([1]; 3% admix): 6.7
Mean particle size (single readings, Coulter nanosizer) ([1]; 3% admix): 324 and 328 and 321
emulsion quality, daily visual inspection ([1]; 0.2% addition): No change in quality
emulsion quality, daily visual inspection ([1]; 1% addition): No change in quality
emulsion quality, daily visual inspection ([1]; 3-percent mixture): fully acceptable over the first 4 days
emulsion stability, daily visual inspection ([1]; Example 33: pure ester in 10% fat emulsion (Intralipid), 0.2%): stable over the whole of the test period
emulsion stability, daily visual inspection ([1]; Example 33: pure ester in 10% fat emulsion, 1%): stable over the whole of the test period
emulsion stability, daily visual inspection ([1]; Example 33: pure ester in 10% fat emulsion, 3%): stable over the whole of the test period
emulsion stability, daily visual inspection ([1]; Example 33: pure ester in 10% fat emulsion, 5%): stable over the first 2 days
emulsion stability, daily visual inspection ([1]; Example 33: pure ester in 20 percent emulsion, 0.2%): remained stable over the whole of the test period
emulsion stability, daily visual inspection ([1]; Example 33: pure ester in 20 percent emulsion, 1%): remained stable over the whole of the test period
emulsion stability, daily visual inspection ([1]; Example 33: pure ester in 20 percent emulsion, 3%): remained stable for 1 day
emulsion stability, daily visual inspection [2]: unstable
microorganism count ([3]; 20% emulsion diluted 1 to 10 with phosphate buffer, after 5 minutes, starting concentration about 10⁴): 10
microorganism count ([3]; diluted 1 to 10 with 20% albumin solution, after 20 hours): 0
microorganism count ([3]; diluted 1 to 10 with TSB, after 5 minutes): 10
microorganism count ([3]; diluted 1 to 10 with TSB, after 20 hours): 0
microorganism count ([3]; diluted 1 to 10 with phosphate buffer, after 2 hours): 0
microorganism count ([3]; diluted 1 to 10 with phosphate buffer, after 20 hours): 0
